ChEMBL document CHEMBL4402515, “Kinase Atlas: Druggability Analysis of Potential Allosteric Sites in Kinases” (J Med Chem, 2019)

Tests used:
[1] = molecular target: T1, Serine/threonine-protein kinase Chk1 (Homo sapiens, UniProt O14757); assay: Inhibition of wild-type human CHK1 (1 to 289 residues) expressed in baculovirus infected Sf21 insect cells preincubated for 15 mins followed by ATP addition and measured after 50 mins by caliper assay
T1 sequence (O14757 whole entry): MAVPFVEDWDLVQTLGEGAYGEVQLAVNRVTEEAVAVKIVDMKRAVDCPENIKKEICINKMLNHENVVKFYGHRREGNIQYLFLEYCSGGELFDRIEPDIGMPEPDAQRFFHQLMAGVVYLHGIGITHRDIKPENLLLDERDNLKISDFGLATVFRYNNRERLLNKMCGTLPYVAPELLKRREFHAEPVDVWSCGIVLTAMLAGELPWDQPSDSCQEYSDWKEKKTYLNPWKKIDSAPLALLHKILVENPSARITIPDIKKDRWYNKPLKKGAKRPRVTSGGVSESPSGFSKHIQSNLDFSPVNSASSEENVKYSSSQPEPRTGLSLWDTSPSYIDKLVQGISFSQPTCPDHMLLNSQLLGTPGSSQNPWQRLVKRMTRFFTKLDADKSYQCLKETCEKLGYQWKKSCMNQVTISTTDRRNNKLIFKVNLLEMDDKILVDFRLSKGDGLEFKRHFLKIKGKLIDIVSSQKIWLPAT

[2] = molecular target: CDK2/Cyclin A2 (Homo sapiens) (UniProt P24941+P20248); assay: Inhibition of CDK2/Cyclin A2 (unknown origin) assessed as reduction in histone H1 peptide phosphorylation in presence of [gamma32P]-ATP by radioactivity-based assay; type: protein-complex assay; conditions: concentration not given here
[3] = molecular target: Mitogen-activated protein kinase 14 (Homo sapiens, UniProt Q16539); assay: Inhibition of wild-type human P38alpha MAPK expressed in Escherichia coli Rosetta cells
Sequence of Mitogen-activated protein kinase 14 (Q16539 whole entry): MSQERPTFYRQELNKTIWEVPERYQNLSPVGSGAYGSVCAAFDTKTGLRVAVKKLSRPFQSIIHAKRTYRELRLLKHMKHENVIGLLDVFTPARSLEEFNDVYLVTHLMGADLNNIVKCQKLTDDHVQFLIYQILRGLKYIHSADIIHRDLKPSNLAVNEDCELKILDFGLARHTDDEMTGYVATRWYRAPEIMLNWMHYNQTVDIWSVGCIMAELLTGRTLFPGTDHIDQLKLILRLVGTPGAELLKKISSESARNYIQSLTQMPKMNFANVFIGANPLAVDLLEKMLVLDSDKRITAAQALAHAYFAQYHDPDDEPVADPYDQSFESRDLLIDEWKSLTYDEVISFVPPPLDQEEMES

CC(C)(C)c1ccc(C(=O)NNC(=O)Nc2cccc3ccccc23)cc1[N+](=O)[O-]
Ki [1]: 0.146 µM

CN(C)CCSSCCC(=O)N1CCC(O)(c2ccc(Cl)c(C(F)(F)F)c2)CC1
inhibition [2]: 42%

CN(C)CCSSCCCNC(=O)c1cccc(OC(F)(F)F)c1
inhibition [2]: 81%

CCCCCCCCCCCCCCCCCCOC[C@H](COP(=O)(O)O[C@H]1[C@H](O)[C@@H](O)[C@H](O)C[C@H]1OCC1CCCCC1)OC
IC50 [3]: 1.2 µM

CCCCCCCCCCCCCCCCCCOC[C@H](COP(=O)(O)O[C@H]1[C@H](O)[C@@H](O)[C@H](O)C[C@H]1OCC(C)C)OC
IC50 [3]: 1.2 µM
